Assays:
Experiment in all cases: LC/MS/MS identification of proteins from mouse liver extracts labeled with MTS-I-49
Format in all cases: biochemical
Liver carboxylesterase 4 = target: T1, Liver carboxylesterase 4 (Mus musculus, UniProt Q91WU0)
T1 construct: from tissue; host or cells: mouse liver extract
T1 sequence (Q91WU0 18-561): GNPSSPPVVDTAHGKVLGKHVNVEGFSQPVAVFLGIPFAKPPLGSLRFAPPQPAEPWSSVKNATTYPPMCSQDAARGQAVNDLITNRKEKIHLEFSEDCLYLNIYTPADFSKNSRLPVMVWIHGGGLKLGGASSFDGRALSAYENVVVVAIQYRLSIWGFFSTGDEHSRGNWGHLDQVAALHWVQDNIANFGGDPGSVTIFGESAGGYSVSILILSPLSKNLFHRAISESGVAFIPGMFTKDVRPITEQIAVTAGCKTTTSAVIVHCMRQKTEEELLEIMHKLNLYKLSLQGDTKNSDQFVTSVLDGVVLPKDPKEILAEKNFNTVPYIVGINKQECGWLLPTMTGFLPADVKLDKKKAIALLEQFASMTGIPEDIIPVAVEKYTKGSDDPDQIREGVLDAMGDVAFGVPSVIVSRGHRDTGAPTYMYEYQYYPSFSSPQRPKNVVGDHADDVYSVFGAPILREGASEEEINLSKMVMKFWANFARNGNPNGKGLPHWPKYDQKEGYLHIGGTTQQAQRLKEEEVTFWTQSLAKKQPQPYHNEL
From the text: (§1) (1991) Irreversible inhibition of serine proteases by peptide derivatives of (alpha-aminoalkyl)phosphonate diphenyl esters. Biochemistry 30, 485-493). However, it has not been used for any proteomic applications. We used MTS-I-49 to label mouse liver extracts and analyze the labeled sample by both SDS-PAGE (FIG. 5B) and by direct chemical cleavage or on bead digestion.
(§2) After enrichment on immobilized avidin, each of the three labeled proteomes (FIG. 5b) was divided into two aliquots. One was prepared for LC-MS/MS analysis by “on bead” digestion, while the other was chemically eluted and digested “in solution.” Proteins identified in each tissue lysate are listed with their accession number and theoretical molecular weight (MW). To compare both approaches, the number of identified peptides and percentage of amino acid sequence coverage is listed for each protein.
(§3) Proteins in the above Table were identified by LC/MS/MS analysis of on bead digested or chemically eluted proteins from mouse liver extracts labeled with MTS-I-49. […] BLAST database searching identified it as liver carboxylesterase 4. A number of additional endogenously biotinylated proteins were identified in the on-bead digested sample.

[1] = target: T2, acetyl-Coenzyme acyltransferase 2 (Mus musculus, UniProt Q8BWT1)
T2 construct: from tissue; host or cells: mouse liver extract
T2 sequence (Q8BWT1 1-397): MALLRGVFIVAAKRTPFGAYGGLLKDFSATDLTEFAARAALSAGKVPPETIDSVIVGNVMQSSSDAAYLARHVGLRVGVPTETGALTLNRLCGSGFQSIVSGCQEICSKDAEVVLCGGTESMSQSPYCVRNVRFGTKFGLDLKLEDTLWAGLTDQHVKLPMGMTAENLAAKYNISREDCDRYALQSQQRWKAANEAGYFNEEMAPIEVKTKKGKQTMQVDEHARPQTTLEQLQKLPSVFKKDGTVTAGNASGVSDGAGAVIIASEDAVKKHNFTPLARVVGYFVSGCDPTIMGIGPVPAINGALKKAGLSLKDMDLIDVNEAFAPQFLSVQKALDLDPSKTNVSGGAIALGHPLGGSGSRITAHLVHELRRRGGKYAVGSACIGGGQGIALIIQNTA
From the text: as §1, §2, §3

alcohol dehydrogenase 1 = target: T3, alcohol dehydrogenase 1 (Mus musculus, UniProt P00329)
T3 construct: from tissue; host or cells: mouse liver extract
T3 sequence (P00329 whole entry): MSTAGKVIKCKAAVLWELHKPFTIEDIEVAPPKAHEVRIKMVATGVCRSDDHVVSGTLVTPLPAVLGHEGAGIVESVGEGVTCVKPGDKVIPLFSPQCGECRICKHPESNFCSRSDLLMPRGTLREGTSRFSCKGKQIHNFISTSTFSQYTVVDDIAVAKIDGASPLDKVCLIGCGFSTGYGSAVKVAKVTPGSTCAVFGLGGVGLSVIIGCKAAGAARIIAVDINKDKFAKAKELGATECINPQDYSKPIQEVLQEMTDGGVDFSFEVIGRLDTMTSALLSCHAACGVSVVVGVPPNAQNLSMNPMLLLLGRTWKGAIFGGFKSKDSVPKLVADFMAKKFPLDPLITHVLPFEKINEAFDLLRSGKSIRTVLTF
From the text: as §1, §2, §3

[2] = system: fructose-bisphosphate aldolase
From the text: as §1, §2, §3

[3] = system: glutathione-S-transferase
From the text: as §1, §2, §3

[4] = target: T4, glycine N-methyltransferase (Mus musculus, UniProt Q9QXF8)
T4 construct: from tissue; host or cells: mouse liver extract
T4 sequence (Q9QXF8 1-293): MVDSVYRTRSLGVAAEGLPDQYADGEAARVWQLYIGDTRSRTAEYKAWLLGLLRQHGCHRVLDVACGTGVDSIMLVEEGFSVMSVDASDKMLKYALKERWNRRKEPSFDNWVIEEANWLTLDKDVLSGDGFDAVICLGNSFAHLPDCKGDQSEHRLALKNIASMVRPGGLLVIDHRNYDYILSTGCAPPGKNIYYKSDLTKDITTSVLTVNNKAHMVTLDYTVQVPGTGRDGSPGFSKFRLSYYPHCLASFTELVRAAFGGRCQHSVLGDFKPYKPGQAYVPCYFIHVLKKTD
From the text: as §1, §2, §3

[5] = target: T5, methionine adenosyltransferase 1 (Mus musculus, UniProt Q91X83)
T5 construct: from tissue; host or cells: mouse liver extract
T5 sequence (Q91X83 whole entry): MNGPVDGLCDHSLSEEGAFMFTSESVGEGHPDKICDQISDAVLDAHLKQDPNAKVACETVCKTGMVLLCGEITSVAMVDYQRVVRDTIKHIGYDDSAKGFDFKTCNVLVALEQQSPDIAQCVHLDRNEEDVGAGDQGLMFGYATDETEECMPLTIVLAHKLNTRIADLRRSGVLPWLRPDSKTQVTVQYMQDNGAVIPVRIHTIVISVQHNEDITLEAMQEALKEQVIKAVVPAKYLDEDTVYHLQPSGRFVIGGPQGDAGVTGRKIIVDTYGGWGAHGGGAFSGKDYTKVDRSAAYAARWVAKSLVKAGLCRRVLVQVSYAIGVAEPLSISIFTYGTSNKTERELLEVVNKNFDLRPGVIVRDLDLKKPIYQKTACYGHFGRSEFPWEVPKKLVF
From the text: as §1, §2, §3

[6] = target: T6, peroxisomal acyl-CoA oxidase (Mus musculus, UniProt Q9R0H0)
T6 construct: from tissue; host or cells: mouse liver extract
T6 sequence (Q9R0H0 1-661): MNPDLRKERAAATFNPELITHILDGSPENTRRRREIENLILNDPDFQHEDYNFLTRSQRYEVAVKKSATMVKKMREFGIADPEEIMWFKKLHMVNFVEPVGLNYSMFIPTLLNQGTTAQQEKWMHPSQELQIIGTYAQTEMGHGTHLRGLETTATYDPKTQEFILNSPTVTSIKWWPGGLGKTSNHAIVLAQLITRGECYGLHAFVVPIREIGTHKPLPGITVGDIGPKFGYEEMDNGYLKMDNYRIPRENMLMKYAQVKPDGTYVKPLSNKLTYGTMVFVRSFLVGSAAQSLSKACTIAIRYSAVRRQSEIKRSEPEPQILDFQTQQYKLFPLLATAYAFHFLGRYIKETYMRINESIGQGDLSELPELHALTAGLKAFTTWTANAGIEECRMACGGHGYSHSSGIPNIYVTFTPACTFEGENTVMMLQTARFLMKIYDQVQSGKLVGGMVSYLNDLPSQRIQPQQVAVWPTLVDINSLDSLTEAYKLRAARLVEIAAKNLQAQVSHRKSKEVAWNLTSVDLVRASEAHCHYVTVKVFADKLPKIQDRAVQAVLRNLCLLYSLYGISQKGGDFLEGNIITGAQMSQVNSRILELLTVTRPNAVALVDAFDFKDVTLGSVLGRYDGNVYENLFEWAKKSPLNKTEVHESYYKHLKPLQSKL
From the text: as §1, §2, §3

[7] = Liver carboxylesterase 4, chemically eluted, digested in solution
[8] = Liver carboxylesterase 4, on bead digestion
[9] = chemically eluted, digested in solution

With C[C@H](NC(=O)c1ccc(N=Nc2cc(CCNC(=O)CCCC[C@@H]3SC[C@@H]4NC(=O)N[C@@H]43)ccc2O)cc1)C(=O)N[C@@H](C)C(=O)NC(Cc1ccccc1)P(=O)(Oc1ccccc1)Oc1ccccc1 (stereo partly shown) [MTS-I-49] the “Chemical Cleavage, amino acid sequence coverage” value (Liver carboxylesterase 4; [7]) was 38%, the “Chemical Cleavage, number of identified peptides” value (“Chemical Cleavage, number” below) (Liver carboxylesterase 4; [7]) was 14 and the “On Bead Digestion, amino acid sequence coverage” value (Liver carboxylesterase 4; [8]) was 51%. The “On Bead Digestion, number of identified peptides” value (shortened to “On Bead Digestion, number”) (Liver carboxylesterase 4; [8]) was 20, the “target identification after chemical cleavage” value (Liver carboxylesterase 4; mouse liver extracts, hypothetical protein identified by BLAST as liver carboxylesterase 4) was “primary probe target” and the “Chemical Cleavage, amino acid sequence coverage” value [1, 9] was 15%. The “Chemical Cleavage, number” value [1, 9] was 2, the “On Bead Digestion, amino acid sequence coverage” value ([1]; on bead digestion) was 26% and the “On Bead Digestion, number” value ([1]; on bead digestion) was 5. The “Chemical Cleavage, number” value (alcohol dehydrogenase 1; [9]) was 0, the “On Bead Digestion, amino acid sequence coverage” value (alcohol dehydrogenase 1; on bead digestion) was 20% and the “On Bead Digestion, number” value (alcohol dehydrogenase 1; on bead digestion) was 3. The “Chemical Cleavage, number” value [2, 9] was 0, the “On Bead Digestion, amino acid sequence coverage” value ([2]; on bead digestion) was 6% and the “On Bead Digestion, number” value ([2]; on bead digestion) was 2. For the same compound, the “Chemical Cleavage, amino acid sequence coverage” value [3, 9] was 12%, the “Chemical Cleavage, number” value [3, 9] was 2 and the “On Bead Digestion, amino acid sequence coverage” value ([3]; on bead digestion) was 44%. For the same compound, the “On Bead Digestion, number” value ([3]; on bead digestion) was 8, the “Chemical Cleavage, number” value [4, 9] was 0 and the “On Bead Digestion, amino acid sequence coverage” value ([4]; on bead digestion) was 10%. For the same compound, the “On Bead Digestion, number” value ([4]; on bead digestion) was 2, the “Chemical Cleavage, number” value [5, 9] was 0 and the “On Bead Digestion, amino acid sequence coverage” value ([5]; on bead digestion) was 9%. For the same compound, the “On Bead Digestion, number” value ([5]; on bead digestion) was 2, the “Chemical Cleavage, number” value [6, 9] was 0 and the “On Bead Digestion, amino acid sequence coverage” value ([6]; on bead digestion) was 4%. The “On Bead Digestion, number” value ([6]; on bead digestion) was 2.
